Data on 13 compounds can be found in US6939563B2, “Non-fermented osmotic laxative and method for treating and preventing colorectal cancers” (Inra-Institut National de la Recherche Agronomique, priority 1998, dated 2005).

In test [1] the test system is colon carcinogenesis in rats. Kind of test: Wargovich et al. Int. J. Cancer 1995 (Ref 12): AOM, then 4 wks, then agent 4 wks. The class given is in vivo, rat. The conditions noted are these: Ref 12 (Piroxicam line prints Ref 8); from published data. The text has this: (§1) Each value is the ratio between the value in the controls given a carcinogenic substance and the value found in animals treated with a preventive agent before or after the carcinogenic substance. The higher the value the greater the effectiveness of the agent.
(§2) The results given in Table 4 were established on the basis of published data indicated in references 2 to 12 in Table 5 below.

Test [2] relates to colon carcinogenesis in rats. The note with it: AOM, then 4 wks, then agent 4 wks, cited from earlier work; for ACF/rat: Aspirin 0.2 g/kg (control 175), Piroxicam 0.2 (control 125), 13 cis Retinoic (control 140); for Large ACF: controls 55 (aspirin), 40 (piroxicam), 57 (retinoic).
For test [3], the system named is colon carcinogenesis in rats. Kind of test: Tanaka et al. Carcinogenesis 1997 (Ref 11): ACF induced by 3 x AOM 15 mg/kg. The class given is in vivo, rat. The conditions noted are these: from published data; for n° ACF/rat, ratio controls/treated: Hesperidin 1000 ppp, Auraptene 500 ppm.
Text: as §1, §2

Test [4] has as its system colon carcinogenesis in rats. The note with it: 3 x AOM 15 mg/kg, cited from earlier work; for ACF/rat: Hesperidin 1000 ppm (control 89 ± 17), Acetoxychavicol acet 100 ppm (control 118 ± 28), Auraptene (control 157 ± 21); for Crypt/ACF: controls 2.77 (Hesperidin), 2.54 (Acetoxychavicol acet), 2.91 (Auraptene).
Test [5] has as its system colon carcinogenesis in rats. The note with it: ACF induced by 10x PhIP, DHA 4 h before each dose, cited from earlier work.
For test [6], the system named is colon carcinogenesis in rats. Kind of test: Takahashi et al. Carcinogenesis 1997 (Ref 9): ACF induced by 10x PhIP, DHA before each dose. The class given is in vivo, rat. The conditions noted are these: from published data.
Text: as §1, §2

Test [7] has as its system colon carcinogenesis in rats. The note with it: 20x AOM, 1 ml DHA with each dose, 12w, cited from earlier work.
In test [8] the test system is colon carcinogenesis in rats. Kind of test: Takahashi et al. Carcinogenesis 1997 (Ref 10): ACF induced by 20x AOM, DHA with each dose. The test is classed as in vivo, rat. The note with it: from published data.
Text: as §1, §2

Test [9] deals with colon carcinogenesis in rats. The note with it: agent wk-1 to +4, 2x15 mg AOM at wk 0, cited from earlier work; for Crypt/ACF: control 2.59 ± 0.14; for ACF/rat: control 228 ± 32.
Test [10] has as its system colon carcinogenesis in rats. Briefly: Pereira-Khoury Cancer Lett. 1991 (Ref 4): agent wk-1 to +4, 2x15 mg AOM. The class given is in vivo, rat. The note with it: from published data.
Text: as §1, §2

In test [11] the test system is colon carcinogenesis in rats. The conditions noted are these: agent day 1-35, AOM on d. 7 & 14, cited from earlier work; for Crypt/ACF: control 2.04 ± 0.04; for ACF/rat: control 26 ± 2.2.
For test [12], the system named is colon carcinogenesis in rats. Briefly: Pereira et al. Carcinogenesis 1994 (Ref 5): agent day 1-35, AOM d. 7 & 14. The class given is in vivo, rat. The note with it: from published data.
Text: as §1, §2

In test [13] the test system is colon carcinogenesis in rats. Briefly: Salim et al. Jpn J Cancer Res 88 (Ref 8): Vit. D3 post DMH 16 wks. The class given is in vivo, rat. The note with it: from published data.
Text: as §1, §2

The test system of test [14] is colon carcinogenesis in rats. The conditions noted are these: Vit. D3 10 ppm post DMH for 16 wks, cited from earlier work.
In test [15] the test system is colon carcinogenesis in rats. Briefly: Reddy et al. Carcinogenesis 1997 (Ref 6): inulin 10 wks, AOM wk 3 & 4. The class given is in vivo, rat. The note with it: from published data.
Text: as §1, §2

Test [16] has as its system colon carcinogenesis in rats. The conditions noted are these: Inulin 10% for 10 wks, AOM at wk 3 & 4, cited from earlier work.

Where two headings read alike, the source gives them in different places.

For the compound `CC1=C(/C=C/C(C)=C/C=C/C(C)=C\C(=O)O)C(C)(C)CCC1` [13 cis retinoic], in test [1], the “Large ACF, ratio controls/treated” value amounted to 1.9 and the “n° ACF/rat, ratio controls/treated” value was determined as 2.0. Also, in test [2], the ACF/rat was 70 and the “Large ACF” value is on record as 30.

Turning to `C=C[C@H](OC(C)=O)c1ccc(OC(C)=O)cc1` [Acetoxychavicol acet.], in test [3], the “n° ACF/rat, ratio controls/treated” value was 1.7; the “Crypts/ACF, ratio controls/treated” value was determined as 1.13; the “Large ACF, ratio controls/treated” value stood at 2.1. The “Large ACF” value in [4] (Acetoxychavicol acet 100 ppm, control 60) is listed as 28. Besides, in test [4], the ACF/rat is recorded as 70 ± 10 and the Crypt/ACF is 2.24.

Turning to `CC(=O)Oc1ccccc1C(=O)O` [Aspirin], in test [1], the “Large ACF, ratio controls/treated” value is reported as 2.7 and the “n° ACF/rat, ratio controls/treated” value was 1.7. In test [2], the ACF/rat is recorded as 100 and the “Large ACF” value is given as 20.

Turning to `CC(C)=CCC/C(C)=C/COc1ccc2ccc(=O)oc2c1` [Auraptene], in test [3], the “n° ACF/rat, ratio controls/treated” value is reported as 2.3 and the “Crypts/ACF, ratio controls/treated” value is 1.33.

With `CC/C=C\C/C=C\C/C=C\C/C=C\C/C=C\C/C=C\CCC(=O)O` [DHA], the Crypts/ACF in test [5] (control 2.69) was 2.39. Besides, the ACF/rat in [5] (control 22) is reported as 8. Moreover, in [6], the “Crypts/ACF, ratio controls/treated” value is 1.13 and the “n° ACF/rat, ratio controls/treated” value was 2.8. For the same compound, the Crypt/ACF in test [7] (control 3.2) is recorded as 2.95. Moreover, the “Large ACF” value in [7] (control 114) was 56. The ACF/rat in test [7] (control 308 ± 64) was 191 ± 40. Besides, in test [8], the “Crypts/ACF, ratio controls/treated” value is 1.08; the “Large ACF, ratio controls/treated” value was determined as 2.0; the “n° ACF/rat, ratio controls/treated” value is 1.6.

`C[C@]12CC[C@H](O)CC1=CC[C@@H]1[C@@H]2CC[C@]2(C)C(=O)CC[C@@H]12` [Dehydroepiandrosterone]: in test [9], the Crypt/ACF is given as 2.44 ± 0.07 and the ACF/rat is 121 ± 19. Moreover, in test [10], the “Crypts/ACF, ratio controls/treated” value stood at 1.06 and the “n° ACF/rat, ratio controls/treated” value is on record as 1.9.

Turning to `COc1ccc([C@@H]2CC(=O)c3c(O)cc(O[C@@H]4O[C@H](CO[C@@H]5O[C@@H](C)[C@H](O)[C@@H](O)[C@H]5O)[C@@H](O)[C@H](O)[C@H]4O)cc3O2)cc1O` [Hesperidin], in [3], the “n° ACF/rat, ratio controls/treated” value stood at 2.6 and the “Crypts/ACF, ratio controls/treated” value is reported as 1.25. In test [4], the ACF/rat was 34 ± 5 and the Crypt/ACF is given as 2.22.

On to `CC(=O)N[C@@H](CS)C(=O)O` [N-acetylcysteine], for which, in test [9], the Crypt/ACF was 2.35 ± 0.07 and the ACF/rat was 151 ± 21. Moreover, in test [10], the “Crypts/ACF, ratio controls/treated” value was determined as 1.10 and the “n° ACF/rat, ratio controls/treated” value came to 1.5.

Turning to `CN1C(C(=O)Nc2ccccn2)=C(O)c2ccccc2S1(=O)=O` [Piroxicam], in test [1], the “Large ACF, ratio controls/treated” value was found to be 8 and the “n° ACF/rat, ratio controls/treated” value is reported as 2.8. For the same compound, in test [2], the ACF/rat is on record as 45 and the “Large ACF” value is 5. Moreover, in test [11], the Crypt/ACF is listed as 1.84 ± 0.1 and the ACF/rat is 16 ± 2.8. Moreover, in test [12], the “Crypts/ACF, ratio controls/treated” value stood at 1.10 and the “n° ACF/rat, ratio controls/treated” value is 1.6.

Take `CC1=C(CC(=O)O)c2cc(F)ccc2/C1=C\c1ccc([S+](C)[O-])cc1` (centres unmarked) [Sulindac]: in test [11], the Crypt/ACF is given as 1.82 ± 0.14 and the ACF/rat is 15 ± 3.2. Also, in [12], the “Crypts/ACF, ratio controls/treated” value came out at 1.10 and the “n° ACF/rat, ratio controls/treated” value came out at 1.7.

As for `C=C1CC[C@H](O)C/C1=C/C=C1\CCC[C@]2(C)[C@@H]([C@H](C)CCCC(C)C)CC[C@@H]12` [Vit. D3], in test [13], the “Large ACF, ratio controls/treated” value came out at 1.8 and the “n° ACF/rat, ratio controls/treated” value is given as 1.3. Also, in test [14] (control 120), the “Large ACF” value is reported as 66. For the same compound, the ACF/rat in test [14] (control 352) was 269.

In the case of Inulin, in [15], the “Large ACF, ratio controls/treated” value turned out to be 1.4 and the “n° ACF/rat, ratio controls/treated” value was 1.5. Besides, in test [16] (control 56), the “Large ACF” value is 39. Further, the ACF/rat in test [16] (control 120) is reported as 78.

On to Oxothiazolidine, for which, in test [9], the Crypt/ACF was 2.38 ± 0.08 and the ACF/rat is 121 ± 11. Besides, in [10], the “Crypts/ACF, ratio controls/treated” value is listed as 1.09 and the “n° ACF/rat, ratio controls/treated” value came to 1.9.
